Assay results from US20250154169A1, “COMPOUNDS AND METHODS FOR MODULATING SPLICING” (REMIX THERAPEUTICS INC., priority 2021, published 2025).

Assays:
MYB mRNA = experiment: Splicing RT-qPCR assay, MYB canonical (CJ) and alternative (AJ) junction mRNA; format: cell-based, human; settings: Homo sapiens, 24 h, A673 or K562 cells, 24 hours compound treatment, RT-qPCR; for AC50: read-out: MYB AJ (AC50, increase in alternative junction mRNA); for IC50: read-out: MYB CJ (IC50, decrease in canonical junction mRNA)
Procedure: (§1) Compounds described herein were used to modulate RNA transcript abundance in cells. The expression of a target mRNA was measured by detecting the formation of an exon-exon junction in the canonical transcript (CJ). A compound mediated exon-inclusion event was detected by observing an increase in formation of a new junction with an alternative exon (AJ). Real-time qPCR assays were used to detect these splicing switches and interrogate the potency of various compounds towards different target genes. A high-throughput real time quantitative PCR (RT-qPCR) assay was developed to measure these two isoforms of the mRNA (CJ and AJ) for exemplary genes, such as HTT, SMN2, and MYB, together with a control housekeeping gene, GAPDH or GUSB or PPIA, used for normalization. Briefly, the A673 or K562 cell line was treated with various compounds described herein (e.g., compounds of Formula (I)). After treatment, the levels of the HTT, MYB, or SMN2 mRNA targets were determined from each sample of cell lysate by cDNA synthesis followed by qPCR.
(§2) • Cells-to-CT 1-step kit: ThermoFisher A25602, Cells-to-CT lysis reagent: ThermoFisher 4391851C, TaqMan™ Fast Virus 1-Step Master Mix: ThermoFisher 4444436 • GAPDH: VIC-PL, ThermoFisher 4326317E (Assay: Hs99999905_m1)—used for K562/suspension cell lines • GUSB: VIC-PL, ThermoFisher 4326320E (Assay: Hs99999908_m1)—used for K562/suspension cell lines • PPIA: VIC-PL, ThermoFisher 4326316E (Assay: Hs99999904_m1)—used for A673/adherent cell lines
(§3) The A673 cell line was cultured in DMEM with 10% FBS. Cells were diluted with full growth media and plated in a 96-well plate (15,000 cells in 100 ul media per well). The plate was incubated at 37° C. with 5% CO2 for 24 hours to allow cells to adhere. An 11-point 3-fold serial dilution of the compounds was made in DMSO then diluted in media in an intermediate plate. Compounds were transferred from the intermediate plate to the cell plate with the top dose at a final concentration of 10 uM in the well. Final DMSO concentration was kept at or below 0.25%. The cell plate was returned to the incubator at 37° C. with 5% CO2 for an additional 24 hours.
(§4) The K562 cell line was cultured in IMDM with 10% FBS. For K562, cells were diluted with full growth media and plated in either a 96-well plate (50,000 cells in 50 uL media per well) or a 384-well plate (8,000-40,000 cells in 45 uL media per well). An 11-point 3-fold serial dilution of the compounds were made in DMSO then diluted in media in an intermediate plate. Compound was transferred from the intermediate plate to the cell plate with the top dose at a final concentration of 10 uM in the well. Final DMSO concentration was kept at or below 0.25%. Final volume was 100 uL for 96-well plate and 50 uL for 384-well plate. The cell plate was then placed in an incubator at 37° C. with 5% CO2 for 24 hours.
(§5) The cells were then gently washed with 50 uL-100 uL cold PBS before proceeding to addition of lysis buffer. 30 uL-50 uL of room temperature lysis buffer with DNAse I (and optionally RNAsin) was added to each well. Cells were shaken/mixed thoroughly at room temperature for 5-10 minutes for lysis to take place and then 3 uL-5 uL of room temperature stop solution was added and wells were shaken/mixed again. After 2-5 minutes, the cell lysate plate was transferred to ice for RT-qPCR reaction setup. The lysates could also be frozen at −80° C. for later use.
(§6) In some cases, a direct lysis buffer was used. An appropriate volume of 3× lysis buffer (10 mM Tris, 150 mM NaCl, 1.5%-2.5% Igepal and 0.1-1 U/uL RNAsin, pH 7.4) was directly added to either K562 or A673 cells in media and mixed by pipetting 3 times. The plates were then incubated at room temperature with shaking/rocking for 20-50 minutes to allow for lysis to take place. After this time, the cell lysate plate was transferred to ice to set up for the RT-qPCR reactions. The lysates could also be frozen at −80° C. for later use. […]

HTT mRNA = experiment: Splicing RT-qPCR assay, HTT canonical (CJ) and alternative (AJ) junction mRNA; format: cell-based, human; settings: Homo sapiens, A673 or K562 cells, 24 hours compound treatment; for IC50: 24 h, read-out: HTT CJ (IC50, decrease in canonical junction mRNA); for AC50: read-out: HTT AJ (AC50, increase in alternative junction mRNA)
Procedure: as §1, §2, §3, §4, §5, §6

SMILES	AC50 (MYB mRNA)	IC50 (MYB mRNA)	IC50 (HTT mRNA)	AC50 (HTT mRNA)
CCn1cc2c(N3C[C@H](F)[C@H](NC)C3)ccc(C(=O)Nc3cc(F)c4nc(C)cn4c3)c2n1 [Compound 585, cis-2-ethyl-N-(8-fluoro-2-methylimidazo[1,2-a]pyridin-6-yl)-4-((3S,4R)-3-fluoro-4-(methylamino)pyrrolidin-1-yl)-2H-indazole-7-carboxamide bis(2,2,2-trifluoroacetate)]	0.1 to 1 µM	0.1 to 1 µM	> 10 µM	> 10 µM
Cc1cn2cc(NC(=O)c3ccc(N4CCC(N)CC4)c4cn(C)nc34)cc(F)c2n1 [Compound 402, 4-(4-aminopiperidin-1-yl)-N-{8-fluoro-2-methylimidazo[1,2-a]pyridin-6-yl}-2-methylindazole-7-carboxamide]	< 0.1 µM	< 0.1 µM	0.1 to 1 µM	0.1 to 1 µM
CCn1cc2c(N3CCN[C@@H](C(C)C)C3)ccc(C(=O)Nc3cc(F)c4nc(C)cn4c3)c2n1 [Compound 535, 2-ethyl-N-{8-fluoro-2-methylimidazo[1,2-a]pyridin-6-yl}-4-[(3 S)-3-isopropylpiperazin-1-yl]indazole-7-carboxamide]	0.1 to 1 µM	0.1 to 1 µM	> 10 µM	> 10 µM
Cc1cn2cc(NC(=O)c3ccc(N4CC[C@@H](NC5CC5(C)C)C4)c4cn(C)nc34)cc(F)c2n1 (some centres unmarked) [Compound 645]	0.1 to 1 µM	0.1 to 1 µM	1 to 10 µM	> 10 µM
CCn1cc2c(N3CCC(N(C)C)CC3)ccc(C(=O)Nc3cc(F)c4nc(C)cn4c3)c2n1 [Compound 395, 4-[4-(dimethylamino)piperidin-1-yl]-2-ethyl-N-{8-fluoro-2-methylimidazo[1,2-a]pyridin-6-yl}indazole-7-carboxamide]	< 0.1 µM	< 0.1 µM	1 to 10 µM	1 to 10 µM
CCn1cc2c(N(C)C3C[C@H]4CC[C@@H](C3)N4)ccc(C(=O)Nc3cc(F)c4nc(C)cn4c3)c2n1 (stereo partly drawn) [Compound 550, 4-[(1R,5S)-8-azabicyclo[3.2.1]octan-3-yl(methyl)amino]-2-ethyl-N-{8-fluoro-2-methylimidazo[1,2-a]pyridin-6-yl}indazole-7-carboxamide]	1 to 10 µM	1 to 10 µM	> 10 µM	> 10 µM
CCn1cc2c(N3CC[C@@](C)(NC)C3)ccc(C(=O)Nc3cc(F)c4nc(C)cn4c3)c2n1 [Compound 547, 2-ethyl-N-{8-fluoro-2-methylimidazo[1,2-a]pyridin-6-yl}-4-[(3R)-3-methyl-3-(methylamino)pyrrolidin-1-yl]indazole-7-carboxamide]	> 10 µM	> 10 µM	> 10 µM	> 10 µM
Cc1cn2cc(NC(=O)c3c(F)cc(N4CC[C@@H](NC5(C#N)CC5)C4)c4cn(C)nc34)cc(F)c2n1 [Compound 587, 4-[(3R)-3-[(1-cyanocyclopropyl)amino]pyrrolidin-1-yl]-6-fluoro-N-{8-fluoro-2-methylimidazo[1,2-a]pyridin-6-yl}-2-methylindazole-7-carboxamide]	0.1 to 1 µM	0.1 to 1 µM	0.1 to 1 µM	0.1 to 1 µM
CCn1cc2c(C3=CCNCC3)ccc(C(=O)Nc3cc(F)c4nc(C)cn4c3)c2n1 [Compound 506, 2-ethyl-N-{8-fluoro-2-methylimidazo[1,2-a]pyridin-6-yl}-4-(1,2,3,6-tetrahydropyridin-4-yl) indazole-7-carboxamide]	0.1 to 1 µM	0.1 to 1 µM	0.1 to 1 µM	1 to 10 µM
Cc1nc2c(C)cc(NC(=O)c3ccc(N4CCNCC4)c4cn(C)nc34)nc2o1 [Compound 511, N-{2,7-dimethyl-[1,3]oxazolo[5,4-b]pyridin-5-yl}-2-methyl-4-(piperazin-1-yl) indazole-7-carboxamide]	0.1 to 1 µM	0.1 to 1 µM	0.1 to 1 µM	0.1 to 1 µM
CCNC1CCN(c2ccc(C(=O)Nc3cc(F)c4nc(C)cn4c3)c3nn(CC)cc23)C1 (stereo in doubt) [Compound 399, (S)-2-ethyl-4-(3-(ethylamino)pyrrolidin-1-yl)-N-(8-fluoro-2-methylimidazo[1,2-a]pyridin-6-yl)-2H-indazole-7-carboxamide]	0.1 to 1 µM	0.1 to 1 µM	> 10 µM	> 10 µM
Cc1cn2cc(NC(=O)c3ccc(N4CC[C@@H](N5C[C@@H](C)N[C@@H](C)C5)C4)c4cn(C)nc34)cc(F)c2n1 [Compound 621, 4-[(3R)-3-[(3R,5S)-3,5-dimethylpiperazin-1-yl]pyrrolidin-1-yl]-N-{8-fluoro-2-methylimidazo[1,2-a]pyridin-6-yl}-2-methylindazole-7-carboxamide]	0.1 to 1 µM	1 to 10 µM	> 10 µM	> 10 µM
Cn1cc2c(N3CCNCC3)ccc(C(=O)Nc3cc(F)c4nc(CO)oc4c3)c2n1 [Compound 406, N-[4-fluoro-2-(hydroxymethyl)-1,3-benzoxazol-6-yl]-2-methyl-4-(piperazin-1-yl) indazole-7-carboxamide]	< 0.1 µM	< 0.1 µM	0.1 to 1 µM	0.1 to 1 µM
Cc1cn2cc(NC(=O)c3ccc(N4CCN[C@H](C5CC5)C4)c4cn(C)nc34)cc(F)c2n1 [Compound 607, 4-[(3R)-3-cyclopropylpiperazin-1-yl]-N-{8-fluoro-2-methylimidazo[1,2-a]pyridin-6-yl}-2-methylindazole-7-carboxamide]	0.1 to 1 µM	0.1 to 1 µM	1 to 10 µM	1 to 10 µM
CCN(c1ccc(C(=O)Nc2cc(F)c3nc(C)cn3c2)c2nn(C)cc12)C1CCNCC1 [Compound 527, 4-[ethyl(piperidin-4-yl)amino]-N-{8-fluoro-2-methylimidazo[1,2-a]pyridin-6-yl}-2-methylindazole-7-carboxamide]	0.1 to 1 µM	0.1 to 1 µM	> 10 µM	> 10 µM
CCN[C@@H]1CCN(c2ccc(C(=O)Nc3cc(F)c4nc(C)cn4c3)c3nn(C)cc23)C1 [Compound 520, 4-[(3R)-3-(ethylamino)pyrrolidin-1-yl]-N-{8-fluoro-2-methylimidazo[1,2-a]pyridin-6-yl}-2-methylindazole-7-carboxamide]	< 0.1 µM	< 0.1 µM	1 to 10 µM	1 to 10 µM
C=Cn1cc2c(N3CCC(NCC)CC3)ccc(C(=O)Nc3cc(F)c4nc(C)cn4c3)c2n1 [Compound 503, 2-ethenyl-4-[4-(ethylamino)piperidin-1-yl]-N-{8-fluoro-2-methylimidazo[1,2-a]pyridin-6-yl}indazole-7-carboxamide]	< 0.1 µM	< 0.1 µM	0.1 to 1 µM	< 0.1 µM
